Test: Solubility of active ingredients in solvents

CCc1cc(C)cc(CC)c1-c1c(OC(=O)C(C)(C)C)n2n(c1=O)CCOCC2 [pinoxaden, 8-(2,6-diethyl-4-methylphenyl)-1,2,4,5-tetrahydro-7-oxo-7H-pyrazolo[1,2-d][1,4,5]oxadiazepin-9-yl 2,2-dimethylpropionate]
Solvent quality of 1,2-propylene carbonate for the active ingredient (1,2-propylene carbonate): only a moderately good solvent | Solvent quality of tetrahydrofurfuryl alcohol (THFA) for the active ingredient (THFA): excellent solvent | Solvent quality of benzyl alcohol for the active ingredient (benzyl alcohol): excellent solvent
